Measured values from BindingDB's records for PubMed 38118394 (Second Military Medical University (Naval Medical …).
Peptide text beside a SMILES is read from it.

biological target: Glypican-3 (Homo sapiens, UniProt P51654); test: Binding affinity to GPC3 (unknown origin) assessed as dissociation constant by fluorescence polarization assay
Sequence (P51654 25-358 limits assumed): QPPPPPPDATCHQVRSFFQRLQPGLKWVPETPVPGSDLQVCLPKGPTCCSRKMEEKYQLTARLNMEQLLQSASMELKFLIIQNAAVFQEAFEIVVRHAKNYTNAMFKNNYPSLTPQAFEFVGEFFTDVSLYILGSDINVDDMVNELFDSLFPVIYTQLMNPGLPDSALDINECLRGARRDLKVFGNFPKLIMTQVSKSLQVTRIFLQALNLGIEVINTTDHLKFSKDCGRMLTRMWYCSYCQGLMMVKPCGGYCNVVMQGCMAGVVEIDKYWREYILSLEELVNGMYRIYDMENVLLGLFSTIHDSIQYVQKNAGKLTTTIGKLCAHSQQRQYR
Sequence (P51654 359-554 limits assumed): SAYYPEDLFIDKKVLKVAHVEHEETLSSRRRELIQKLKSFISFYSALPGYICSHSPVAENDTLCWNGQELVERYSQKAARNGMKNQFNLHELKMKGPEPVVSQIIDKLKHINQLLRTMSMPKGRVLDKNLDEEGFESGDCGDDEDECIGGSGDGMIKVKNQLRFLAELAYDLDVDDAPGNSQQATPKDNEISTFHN

Kd, 0.3 µM:
C=Cc1c(C)c2cc3nc(c(CC(=O)O)c4[nH]c(cc5nc(cc1[nH]2)C(C)=C5CC)c(C)c4C(=O)NCCCC(=O)N[C@@H](CCCNC(=N)N)C(=O)N[C@@H](CC(C)C)C(=O)N[C@@H](CC(N)=O)C(=O)N[C@H](C(=O)NCC(=O)NCC(=O)N[C@H](C(=O)N[C@@H](Cc1ccc(O)cc1)C(=O)N[C@@H](Cc1ccccc1)C(=O)N[C@@H](CC(C)C)C(=O)N[C@H](C(=O)N[C@H](C(=O)N[C@@H](CCCNC(=N)N)C(=O)N[C@@H](CCC(N)=O)C(=O)O)[C@@H](C)O)[C@@H](C)O)[C@@H](C)O)C(C)C)[C@@H](CCC(=O)O)[C@@H]3C (HELM PEPTIDE1{[C=Cc1c(C)c2cc3nc(c(CC(=O)O)c4[nH]c(cc5nc(cc1[nH]2)C(C)=C5CC)c(C)c4C(=O)[*:2])[C@@H](CCC(=O)O)[C@@H]3C].[O=C(CCCN[*:1])[*:2]].R.L.N.V.G.G.T.Y.F.L.T.T.R.Q}$$$$V2.0), C=Cc1c(C)c2cc3nc(c(CC(=O)O)c4[nH]c(cc5nc(cc1[nH]2)C(C)=C5CC)c(C)c4C(=O)NCCCC(=O)N[C@@H](CCCCN)C(=O)N[C@@H](CCCCN)C(=O)N[C@@H](CCCCN)C(=O)N[C@@H](CCCNC(=N)N)C(=O)N[C@@H](CC(C)C)C(=O)N[C@@H](CC(N)=O)C(=O)N[C@H](C(=O)NCC(=O)NCC(=O)N[C@H](C(=O)N[C@@H](Cc1ccc(O)cc1)C(=O)N[C@@H](Cc1ccccc1)C(=O)N[C@@H](CC(C)C)C(=O)N[C@H](C(=O)N[C@H](C(=O)N[C@@H](CCCNC(=N)N)C(=O)N[C@@H](CCC(N)=O)C(=O)O)[C@@H](C)O)[C@@H](C)O)[C@@H](C)O)C(C)C)[C@@H](CCC(=O)O)[C@@H]3C (HELM PEPTIDE1{[C=Cc1c(C)c2cc3nc(c(CC(=O)O)c4[nH]c(cc5nc(cc1[nH]2)C(C)=C5CC)c(C)c4C(=O)[*:2])[C@@H](CCC(=O)O)[C@@H]3C].[O=C(CCCN[*:1])[*:2]].K.K.K.R.L.N.V.G.G.T.Y.F.L.T.T.R.Q}$$$$V2.0), C=Cc1c(C)c2cc3nc(c(CC(=O)O)c4[nH]c(cc5nc(cc1[nH]2)C(C)=C5CC)c(C)c4C(=O)NCCCC(=O)N[C@@H](CC(=O)O)C(=O)N[C@@H](Cc1ccc(O)cc1)C(=O)N[C@@H](CCC(=O)O)C(=O)N[C@@H](CCSC)C(=O)N[C@@H](Cc1cnc[nH]1)C(=O)N[C@@H](CC(C)C)C(=O)N[C@@H](Cc1c[nH]c2ccccc12)C(=O)N[C@@H](Cc1c[nH]c2ccccc12)C(=O)NCC(=O)N[C@H](C(=O)N[C@@H](CCC(=O)O)C(=O)N[C@@H](CC(C)C)C(=O)O)[C@@H](C)O)[C@@H](CCC(=O)O)[C@@H]3C (HELM PEPTIDE1{[C=Cc1c(C)c2cc3nc(c(CC(=O)O)c4[nH]c(cc5nc(cc1[nH]2)C(C)=C5CC)c(C)c4C(=O)[*:2])[C@@H](CCC(=O)O)[C@@H]3C].[O=C(CCCN[*:1])[*:2]].D.Y.E.M.H.L.W.W.G.T.E.L}$$$$V2.0)
